# Measurements published in PubChem BioAssay AID200 (DTP/NCI, 2004).
# Where “and” joins values, the source holds several entries; their conditions need not be identical. Identical values can stand only once. Toxic doses and inconclusive results are not listed.
# Test system: B6C3F1 mice, B16 melanoma ip, median survival T/C
# Test: NCI In Vivo Anticancer Drug Screen. Data for tumor model B16 Melanoma (intraperitoneal) in B6C3F1 mice
# Settings: endpoint: median survival time, higher = longer survival
# Summary of the method: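 Readout: survival or tumor size in treated mice relative to vehicle controls (T/C). Model uses transplantable tumors grown in mice.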
# [1] = dose: 25.0 mg/kg/injection, schedule: Q01DX009 (ip), vehicle: saline with Tween-80
# [2] = dose: 50.0 mg/kg/injection, schedule: Q01DX009 (ip), vehicle: saline with Tween-80
# [3] = dose: 100.0 mg/kg/injection, schedule: Q01DX009 (ip), vehicle: saline with Tween-80
# [4] = dose: 12.5 mg/kg/injection, schedule: Q01DX009 (ip), vehicle: Klucel (hydroxypropylcellulose) (HPC)
# [5] = dose: 25.0 mg/kg/injection, schedule: Q01DX009 (ip), vehicle: Klucel (hydroxypropylcellulose) (HPC)
# [6] = dose: 25.0 mg/kg/injection, schedule: Q01DX009 (ip), vehicle: saline
# [7] = dose: 50.0 mg/kg/injection, schedule: Q01DX009 (ip), vehicle: saline
# [8] = dose: 12.5 mg/kg/injection, schedule: Q01DX009 (ip), vehicle: distilled water + Tween-80
# [9] = dose: 200.0 mg/kg/injection, schedule: Q01DX009 (ip), vehicle: saline with Tween-80
smiles,measurement,setting,value
CC1=CC(=NN=c2cc(C)n([O-])c(C)c2)C=C(C)[N+]1=O,T/C,"dose: 12.5 mg/kg/injection, schedule: Q01DX009 (ip), vehicle: suspension in saline",91 % of control
same,T/C,[1],107 % of control
same,T/C,"dose: 25.0 mg/kg/injection, schedule: Q01DX009 (ip), vehicle: suspension in saline",99 % of control
same,T/C,[2],123 % of control
same,T/C,"dose: 50.0 mg/kg/injection, schedule: Q01DX009 (ip), vehicle: suspension in saline",95 % of control
same,T/C,[3],121 % of control
same,T/C,"dose: 100.0 mg/kg/injection, schedule: Q01DX009 (ip), vehicle: suspension in saline",108 % of control
O=S(=O)(c1cccc(N=C=S)c1)c1cccc(N=C=S)c1,T/C,"dose: 6.25 mg/kg/injection, schedule: Q01DX009 (ip), vehicle: Klucel (hydroxypropylcellulose) (HPC)",109 % of control
same,T/C,[4],94 % of control
c1ccc(P(CCNCCP(c2ccccc2)c2ccccc2)c2ccccc2)cc1,T/C,[1],113 % of control
same,T/C,[2],105 % of control
same,T/C,[3],116 % of control
COC(=O)NC1C(C)OC(OC2C/C=C(/C)C3C=CC4C(OC5CC(OC6CC(O)C(OC7CC(O)C(OC)C(C)O7)C(C)O6)C(O)C(C)O5)C(C)CC(C)C4C3(C)/C(O)=C3\C(=O)OC4(CC(C)C(CO)=CC4/C=C\2C)C3=O)CC1(C)[N+](=O)[O-] (configuration not stated),T/C,[4],100 % of control and 104 % of control
same,T/C,[5],110 % of control and 106 % of control
same,T/C,"dose: 50.0 mg/kg/injection, schedule: Q01DX009 (ip), vehicle: Klucel (hydroxypropylcellulose) (HPC)",121 % of control
CC(=O)/C(=C\c1ccc(Cl)c(Cl)c1)C(=O)CCN(C)C,T/C,"dose: 12.5 mg/kg/injection, schedule: Q01DX009 (ip), vehicle: saline",94 % of control
same,T/C,[6],93 % of control
same,T/C,[7],89 % of control
CC(=S)NC(O)C(=O)c1ccccc1 (configuration not stated),T/C,[8],104 % of control
same,T/C,"dose: 12.5 mg/kg/injection, schedule: Q01DX009 (ip), vehicle: saline with Tween-80",95 % of control
same,T/C,"dose: 25.0 mg/kg/injection, schedule: Q01DX009 (ip), vehicle: distilled water + Tween-80",107 % of control
same,T/C,[1],94 % of control
same,T/C,"dose: 50.0 mg/kg/injection, schedule: Q01DX009 (ip), vehicle: distilled water + Tween-80",98 % of control
same,T/C,[2],93 % of control
same,T/C,"dose: 100.0 mg/kg/injection, schedule: Q01DX009 (ip), vehicle: distilled water + Tween-80",113 % of control
same,T/C,[3],93 % of control
same,T/C,[9],89 % of control
CC/C(C)=C1\OC(=O)C(C)C(O)C(Cc2cccnc2)NC(=O)C(NC(=O)c2ncccc2O)C(C)OC1=O (configuration not stated),T/C,"dose: 0.75 mg/kg/injection, schedule: Q01DX009 (ip), vehicle: saline with Tween-80",113 % of control
same,T/C,"dose: 1.5 mg/kg/injection, schedule: Q01DX009 (ip), vehicle: saline with Tween-80",107 % of control
same,T/C,"dose: 3.0 mg/kg/injection, schedule: Q01DX009 (ip), vehicle: saline with Tween-80",123 % of control
same,T/C,"dose: 6.0 mg/kg/injection, schedule: Q01DX009 (ip), vehicle: saline with Tween-80",86 % of control
CCC(=O)OCC1OC(n2cnc3c(=S)nc(N)[nH]c32)C(OC(=O)CC)C1OC(=O)CC (configuration not stated),T/C,[5],86 % of control
CC(O)CNC1c2ccccc2CC1O (configuration not stated),T/C,[6],90 % of control
same,T/C,[7],93 % of control
same,T/C,"dose: 100.0 mg/kg/injection, schedule: Q01DX009 (ip), vehicle: saline",89 % of control
COc1ccc2c(c1)CCn1c(C)c(COC(=O)NC(C)C)c(COC(=O)NC(C)C)c1-2,T/C,"dose: 1.5 mg/kg/injection, schedule: Q01DX009 (ip), vehicle: distilled water + Tween-80",114 % of control
same,T/C,"dose: 3.0 mg/kg/injection, schedule: Q01DX009 (ip), vehicle: distilled water + Tween-80",154 % of control
same,T/C,"dose: 3.12 mg/kg/injection, schedule: Q01DX009 (ip), vehicle: distilled water + Tween-80",150 % of control
same,T/C,"dose: 12.0 mg/kg/injection, schedule: Q01DX009 (ip), vehicle: distilled water + Tween-80",163 % of control
same,T/C,[8],180 % of control
COc1ccc(C[C@@H]2NC[C@@H](O)[C@@H]2OC(C)=O)cc1,T/C,[1],124 % of control
same,T/C,"dose: 25.0 mg/kg/injection, schedule: Q04DX003 (ip), vehicle: saline with Tween-80",112 % of control
same,T/C,[2],120 % of control
same,T/C,"dose: 50.0 mg/kg/injection, schedule: Q04DX003 (ip), vehicle: saline with Tween-80",110 % of control
same,T/C,"dose: 100.0 mg/kg/injection, schedule: Q04DX003 (ip), vehicle: saline with Tween-80",114 % of control
same,T/C,[9],120 % of control and 121 % of control
same,T/C,"dose: 200.0 mg/kg/injection, schedule: Q04DX003 (ip), vehicle: saline with Tween-80",112 % of control
